Consider six molecules from patent US20200316087A1, “NOVEL COMBINATION THERAPY FOR ANXIETY DISORDERS, EPILEPSY, AND PAIN” (priority 2017, published 2020).

In data set [1] the test system is CFA-induced mechanical hyperalgesia. Kind of data set: Complete Freund's adjuvant inflammatory pain, von Frey filament test. The format is in vivo, rats. As to the method:
Complete Freund's adjuvant (CFA) contains Mycobacterium butyricum, inducing inflammation and an increase in paw thickness. 0.1 mL of CFA was injected in the right hind paw of Sprague Dawley male rats under isoflurane anaesthesia. Mechanical hyperalgesia may be measured 2-3 days after CFA treatment. Rats (n=6) are placed in elevated boxes with a mesh floor. Von Frey filaments (expressed in g) are applied perpendicularly to the hindpaws, starting with the lowest filament (1.4 g) then increased until hindpaw withdrawal is observed. After each measurement, rats receive the next dose of drug (every 20 min) until the maximum threshold (26 g) is observed. For the antagonist study, rats are pretreated with the benzodiazepine site antagonist (10 min) and then receive the next dose of drug (every 20 min) until the pre-CFA threshold was observed.
3PBC.HCl was dissolved in a mixture containing 10% ethanol, 50% propylene glycol, and 40% sterile water. BCCt was dissolved in propylene glycol and then heated in a water bath up to 70° C. Midazolam (Akorn, Inc.) was dissolved in 0.9% saline. Doses were expressed as the weight of the drug in milligrams per kilogram of body weight and drugs were administered intraperitoneally.
Starting 2 days after CFA treatment, mechanical hyperalgesia was measured on days 0, 4, and 8. On days 1-3 and 5-7 rats were pretreated with either 3PBC.HCl (5.6 mg/kg), β-carboline-3-carboxylate-t-butyl ester (BCCt) (3.2 mg/kg) or saline twice a day (a.m. injections (9:00-10:30) and p.m. injections (5:00-6:30)) in their home cages. Rats were treated with midazolam (5.6 mg/kg) immediately after pretreatment of 3PBC.HCl, BCCt, or saline. On days 0 and 4, rats only received p.m. injections due to the mechanical hyperalgesia test done in the a.m.
The anti-hyperalgesic effects of midazolam were quantified for each animal as percent maximal possible effect (MPE) for each drug dose by using the following formula: percent MPE=[(post-drug value for a behavioral response (g)−pre-drug value for a behavioral response)/(pre-CFA value-pre-drug value for a behavioral response)×100.

Data set [2] relates to motor performance on an inverted screen. Nature of the data set: Rat inverted screen test (motor impairment). Particulars: rats. The text has this:
The motor effects of Diazepam and KRM-II-81 were studied on the inverted screen. The inverted screen test is used to measure whether or not a test compound induces muscle relaxation. When a test subject is placed on a wire screen which is then inverted, the reaction is to climb to the opposite side so they are no longer hanging upside down.
Male, Sprague Dawley rats (Harlan Sprague Dawley, Indianapolis, Ind.) were used and weighed 90-110 g when evaluated in experiments. […] Rats were placed onto the top of a wire screen, which was then inverted so that the rats were hanging upside down.
Male Sprague-Dawley rats (n=5) were dosed i.p. (vehicle=1% carboxymethyl cellulose) with diazepam (3, 10, or 30 mg/kg), KRM-II-81 (10, 30, or 60 mg/kg) or HZ-166 (30 mg/kg) 30 minutes prior to testing. Rats were placed onto the top of a wire screen, which was then inverted so that the rats were hanging upside down. […] Results were analyzed using ANOVA (Dunnett's test: *P<0.05).
(§1) For the in vivo assays, minimal effective doses (MED) were calculated in mg/kg. MED was defined as the lowest dose administered that produced statistically significant protection compared to vehicle control in the anticonvulsant assays. The MED, or minimal toxic dose (MTD) for motor impairment, was the minimal dose required to produce statistically-significant impairment in motor performance. Doses tested are shown in the figures and tables and are generally dosed in ½ log increments. The protective index (PT) was calculated at the MTD/MED.

The test system of data set [3] is electroshock-induced seizures. Nature of the data set: Mouse electroshock-induced seizure model. It counts as in vivo. Particulars: mice. As to the method: This assay detects effects of compounds that produce generalized seizures and those that dampen seizure spread. Male, CD1 mice (Taconic Farms) were studied at weights of 21-32 g. Mice=10/dose) were used with Wahlquist Model H stimulator with 0.2 sec stimulation with corneal electrodes. […] Mice were euthanized immediately following the test. Tonic extension was used as the primary endpoint.
as §1

The subject of the next data set is PTZ-induced clonus. Kind of data set: Pentylenetetrazole (PTZ, 35 mg/kg s.c.)-induced clonic convulsions. It counts as in vivo. Particulars: rats. As to the method: After the inverted screen test, the rats were dosed with pentylenetetrazole (PTZ)(35 mg/kg, s.c.) in a volume of 1 ml/kg and placed in an observation cage (40.6×20.3×15.2 cm) with a floor containing […] of wood chip bedding material. PTZ dose was determined to be ˜EC97 for producing clonic convulsions.

The test system of a further data set is PTZ seizure threshold. Kind of data set: Pentylenetetrazole (PTZ, i.v.)-induced seizure threshold. It counts as in vivo, rats. As to the method: Male […] Sprague-Dawley rats (Indianapolis, Ind.) were randomly assigned to treatment groups and dosed with vehicle (vehicle=1% carboxymethyl cellulose) with diazepam (0.1, 0.3, or 1 mg/kg) or test compound (3, 10, 30, or 60 mg/kg) 30 minutes prior to testing. Rats were placed in a restrainer and a winged infusion needle was inserted into the lateral tail vein. Intravenous infusion with 10 mg/ml PTZ at a rate of 0.5 ml/min was initiated until a clonic convulsion occurred, and the time to clonic convulsion was recorded in sec or a maximum of 4 min was recorded. Following infusion, rats are euthanized. The dose of PTZ required to elicit a clonic convulsion was calculated using the infusion rate, concentration of PTZ, time to clonic convulsion, and animal weight.

The test system of data set [4] is seizures in amygdala kindled rats. Kind of data set: Basolateral amygdala kindling. The format is in vivo. As to the method: Seizure kindling models evaluate effects of drugs on the sensitization of the nervous system to seizure induction. In this test, drugs were evaluated for their ability to impact seizure parameters in rats that were fully kindled by daily electrical stimulation of their amygdala. Valproic acid was used as a positive control. Experiments were conducted using the general procedures of Zwart et al. (J. Pharmacol. Exp. Ther., 2014, 351:124-133). A bipolar electrode for electrical stimulation and EEG recording was stereotaxically implanted into one hemisphere of the basolateral amygdala (AP −2.2, ML −4.8, DV −8.5 mm, relative to bregma) of male Wistar rats. After post-operative recovery, electrical kindling begins, where a subthreshold constant current (400 μA, 1 ms, monophasic square-wave pulses, 60 Hz for 1 sec) is given once a day Monday-Friday for about 4-6 weeks until a rat is fully kindled. A fully kindled rat has experienced 10 consecutive stage 5 seizures or 10 of its last 12 were stage 5 according to the Racine Scale.
Twelve fully kindled rats were assigned to this study, and eight rats were selected and randomized to initial compound treatment groups from baseline after discharge threshold (ADT), seizure severity score, and after discharge duration (ADD). […] On test day, rats were dosed 30 min prior to beginning stimulation. After the pre-treatment, rats were stimulated using an ascending staircase sequence beginning at 10 μA and increasing in log unit steps of 10, 16, 25, 40, 65, 100, 160, 250, and 400 μA. Animals were stimulated until they were assigned a Seizure Severity Score for a visually observably seizure or they reached the 400 μA threshold limit. ADD was determined following testing. ADT was the current that induced a seizure; measurements were scale-adjusted to capture the stimulation scale change required to observe a seizure from the previous baseline to the ADT scored on test day. […] The average scale adjusted ADT was approximately 0.63 μA in vehicle treated rats.
Racine score of behavioral response to stimulation: 0=no behavioral response; 1=immobility, staring and/or facial clonus; 2=head nodding, jaw clonus, and/or tongue protrusion; 3=unilateral forelimb clonus; 4=bilateral forelimb clonus and/or rearing; 5=bilateral forelimb clonus with rearing and loss of balance.
After-Discharge Duration (ADD) is the duration of the first after-discharge.
ADT, ADD, and severity scores were analyzed by ANOVA. Seizure severity data was also analyzed by the nonparametric Skillings-Mack test, a generalization of the Friedman test for one-way repeated measures designs. Posthoc tests when reported were either by Dunnett's method (seizure severity) or using Wilcoxon sign rank tests (ADT and ADD). Valproic acid, used as a positive control was not used in ANOVA calculations.

The mark [5] stands for this setting: MED producing maximal protection (0% seizures).

`CCCOc1cc2c(cn1)[nH]c1ccccc12.Cl` [3-PBC.HCl]: in data set [1] (midazolam 5.6 mg/kg after 7 days of repeated midazolam with 3PBC.HCl (5.6 mg/kg) pretreatment twice a day), the “percent maximal possible effect of midazolam” value is 52 % MMPE.
Take `C#Cc1ccc2c(c1)C(c1ccccn1)=NCc1c(C(=O)OCC)ncn1-2` [HZ-166, ethyl 8-ethynyl-6-(pyridin-2-yl)-4H-benzo[f]imidazo[1,5-a][1,4]diazepine-3-carboxylate, reference compound]: the “muscle relaxation on inverted screen (result in words)” value in data set [2] (i.p., 30 min prior, KRM-II-81 10-60 mg/kg, HZ-166 30 mg/kg) was “Neither HZ-166 nor KRM-II-81 induced significant muscle relaxation”. In addition, the “dose at which signs of muscle relaxation began to appear” value in data set [2] (i.p., inverted screen) worked out at 30 mg/kg. In data set [3] (setting [5]), the “Electroshock to Criteria” value is reported as greater than 30 mg/kg. Further, the “Electroshock (minimal effective dose, MED)” value in data set [3] (lowest dose with statistically significant protection vs vehicle) worked out at 30 mg/kg. Moreover, the “protection against electroshock-induced seizures” value in data set [3] is recorded as “not efficacious up to 30 mg/kg”. In addition, the “PTZ Clonus to Criteria 1” value in the data set on PTZ-induced clonus (setting [5]) is greater than 30 mg/kg. For the same molecule, in the data set with PTZ-induced clonus (lowest dose with statistically significant protection, PTZ 35 mg/kg s.c.), the “PTZ Clonus Potency (MED)” value is given as greater than 30 mg/kg. Further, the “protection against PTZ-induced clonus” value in the data set on PTZ-induced clonus (PTZ 35 mg/kg s.c.) is reported as “did not significantly separate from vehicle up to 30 mg/kg”. The “PTZ Threshold to Criteria” value with PTZ seizure threshold (MED for producing ≥2× PTZ seizure threshold at baseline) is reported as greater than 60 mg/kg. The “PTZ Threshold Poteny (MED)” value in the data set with PTZ seizure threshold (lowest dose with statistically significant effect, rats, PTZ i.v.) is reported as greater than 60 mg/kg. Moreover, the “effect on dose of PTZ required to induce convulsions” value in the data set with PTZ seizure threshold (rats, PTZ i.v. infusion, pretreatment 30 min) is “not active and displayed little protection up to 60 mg/kg”. Moreover, the “After-Discharge Duration to Criteria” value in data set [4] (MED for producing after-discharge duration ≤30 sec) is on record as greater than 60 mg/kg. For the same molecule, in data set [4] (MED for producing after-discharge threshold ≥3), the “After-Discharge Threshold to Criteria” value is recorded as greater than 60 mg/kg. Also, in data set [4] (MED for producing seizure severity score ≤2), the “Seizure Severity to Criteria” value is greater than 60 mg/kg. Moreover, in data set [4] (amygdala kindled rats), the “After-Discharge Duration Potency (MED)” value was greater than 60 mg/kg, the “After-Discharge Threshold Potency (MED)” value is recorded as greater than 60 mg/kg and the “Seizure Severity Poteny (MED)” value is recorded as greater than 60 mg/kg. Further, the “Seizure free scores (seizure severity=0)” value in data set [4] (amygdala kindled rats, groups of 8) is 0/8.
Take `CCOC(=O)c1ncn2c1CN(C)C(=O)c1cc(F)ccc1-2` [Flumazenil, flumazenil]: the “effect on antinociceptive effects of KRM-II-81” value in data set [1] (flumazenil pre-treatment before cumulative doses of KRM-II-81, CFA rats) is given as “dose-dependently attenuated”.
Turning to `CCCC(CCC)C(=O)O` [valproate, Valproic acid, reference compound], the “motor impairment on inverted screen” value in data set [2] (300 mg/kg, positive control) is reported as “full motor impairment”.
Turning to `Cc1ncc2n1-c1ccc(Cl)cc1C(c1ccccc1F)=NC2` [midazolam], the “percent maximal possible effect (MPE) of midazolam” value in data set [1] (midazolam 5.6 mg/kg after 7 days of repeated midazolam with saline pretreatment) amounted to 17 % MPE. For the same molecule, in data set [1] (midazolam 5.6 mg/kg i.p., Day 0, prior to repeated treatment, CFA rats), the “percent maximal possible effect (MPE), attenuation of mechanical hyperalgesia” value is 100 % MPE.
Turning to `CC(C)(C)OC(=O)c1cc2c(cn1)[nH]c1ccccc12` [BCCt, β-carboline-3-carboxylate-t-butyl ester], the “percent maximal possible effect (MPE) of midazolam” value in data set [1] (midazolam 5.6 mg/kg after 7 days of repeated midazolam with BCCt (3.2 mg/kg) pretreatment twice a day) came to 92 % MPE.
